Measured values from US8993514B1 (The Florida State University Research Foundation, Inc., priority 2011, dated 2015).
Several values for one entry are separate records, joined by “and”; a condition that tells them apart may be missing. Identical values can stand only once. Like-named read-outs stand apart in the source and are kept apart here.

Columns and labels:
[1] = assay type: binding; settings: 1% DMSO
[2] = assay type: binding; settings: for hemin binding indicated by decrease of fluorescence intensity as hemin is added: pH 7.4; for estimated number of hemin molecules bound to the respective peptide: 25° C.
[3] = test system: brain edema after traumatic brain injury; settings: in vivo, 8 mg/kg
[4] = test system: cultured neurons and astrocytes; settings: cited from earlier work

Row | Substance | hemin binding indicated by SPR response increasing with hemin concentration [1] | hemin binding indicated by decrease of fluorescence intensity as hemin is added [2] | estimated number of hemin molecules bound to the respective peptide ([2]; pH = 5.0) | estimated number of hemin molecules bound to the respective peptide ([2]; pH = 7.4) | % water content of brain tissue from impacted region, individual rat [3] | % water content of brain tissue from impacted region, average ([3]; rat) [%] | effect on brain swelling ([3]; rat) | hemin concentration sufficient to kill 60%-70% of cultured neurons and astrocytes [4] [µM]
1 | GQPHGGGWGQPHGGGWGQPHGGGWGQPHGGGWGQGGG (Synthetically generated peptide) [SEQ ID NO: 6, 4-repeat peptide of the octarepeat region with additional flanking residues] | hemin binds to the respective peptide | hemin forms a chemical bond | 4.0 | 2.0 |  |  |  | 
2 | PHGGGWGQPHGGGWGQ [SEQ ID NO: 3] |  | hemin forms a chemical bond |  |  | 80.93% and 77.24% and 80.98% | 79.72 | reduced the brain swelling | 
3 | hemin |  |  |  |  |  |  |  | 3 to 30
